Patent US20230309556A1, “HERBICIDAL COMPOSITIONS RELATED TO OXALOACETATE AND METHODS AND USE THEREOF” (priority 2021, published 2023)

System: plants
Assay: general screening of the herbicidal effect
Format: in vivo
Conditions: 10% w/w; compared with Roundup RTU and Bayer Advanced at 10% and 100% Label Rate; results shown in FIG. 1
Experimental: A general screening of the herbicidal effect of the following compounds was carried out: Bayer Advanced (100% Label Rate), Bayer Advanced (10% Lable Rate), UTC, Diethyl Oxalacetate (10% w/w), Roundup, rtu (10% Label Rate) and Roundup RTU (100% Label Rate).

SMILES: CCOC(=O)CC(=O)C(=O)OCC [Diethyl Oxalacetate]
- herbicidal activity: comparable to well-known herbicide products such as Roundup and Bayer Advanced
